One block for each molecule: values may come before it. Where a SMILES comes first, the peptide text is derived from it. Bridges are numbered along the chain shown (N, C = ends).
What was measured:
[1] = target: T1, neutral endopeptidase (NEP) (Homo sapiens, UniProt P08473); assay: Resistance to peptidase: stability to hNEP (HPLC residual rate); assay type: in vitro ADME; details: human, isolated enzyme neprilysin, pH 6.5
T1 construct: purchased R&D Systems, Inc., U.S.A
Protocol: The experiment was conducted in N=2 for each sample. Native CNP-22, chimeric CNP (A, B) (structure mentioned already; final concentration: 0.5 μg/mL) and 100 μL of reaction solution (medium: 20 mM MES, pH 6.5) of human type recombinant neutral endopeptidase (hNEP, manufactured by R&D Systems, Inc., U.S.A.) were prepared. […] Distilled water (100 μL) was added to the sample after boiling followed by well mixing and 50 μL thereof was analyzed in a water-acetonitrile system using a high-performance liquid chromatography system LC-10A (manufactured by Shimadzu). The analytical data were analyzed by a Chromato-Pack (CRA-10A, manufactured by Shimadzu) and area of the peak zone of unchanged substance was calculated. The area of average zone of unchanged substance when made to react at 37° C. was divided by the area of average zone of the boiled sample to calculate the residual rate of the unchanged substance after 1 hour.

[2] = CNP immunoreactivity concentration in plasma after administration to rats (competitive RIA), pharmacokinetic parameters (Example 2); assay type: in vivo, rat; details: rat, plasma, 0.1 mg/kg, male rats, N = 3, mean ± SD; for half-life: read-out: T½
Protocol: Pharmacokinetic parameters were calculated from the resulting changes in immunoreactivity concentrations in plasma. At that time, WinNonlin Professional Ver. 4.0.1 (manufactured by Pharsight Corporation, U.S.A.) was used as the analytical software. Method for the calculation of each parameter is mentioned as follows.
Concentration at time 0 (C0; extrapolated value, ng/mL), area under the curve for concentration in plasma vs. time (AUC; ng.min/mL) and quenching half-life (T½; minute(s)) were calculated as follows. C0 was calculated as a value at time by means of extrapolation from the changes in immunoreactivity concentration in plasma at each blood collection period. AUC was calculated by a trapezoidal method using the immunoreactivity concentrations in plasma at all measuring points (t) and an extrapolated value until the infinitive time was determined. T½ was calculated by means of a least-squares method from the inclination of a straight line connecting several points in a disappearing phase of the immunoreactivity concentration in plasma. In the case of a subcutaneous administration, C0 was not determined but the maximum concentration in plasma (Cmax; ng/mL) and the time reaching the maximum concentration in plasma (Tmax; min) were determined.
Changes in CNP immunoreactivity concentration in plasma of native CNP-22 and chimeric peptide (chimeric CNP) where a half-life-extension peptide was added to CNP were investigated.
The experiment was conducted in the same manner as in Example 1 that rats where polyethylene tube was previously inserted into thigh artery were used under an anesthetizing condition with Nembutal and male SD strain rats of 7 weeks age (purchased from Nippon Charles River) were used where one group comprised 3 rats. […] At that time, a rabbit polyclonal antibody (#2) recognizing a ring part of native CNP-22 was used as an antibody and ^125I-[Tyr^0] CNP was used as a labeling compound. Pharmacokinetic analysis was carried out by the same method as in Example 1.

[3] = in vivo; details: male, SD, rat, iv, 10 nmol/kg
Protocol: The experiment was carried out using rats into which polyethylene tube (PE-50 manufactured by Clay Adams) was previously inserted into thigh artery under an anesthetized condition with Nembutal. As to a test system, male SD strain rats (Nippon Charles River) of 7 weeks age were used where one group comprised 3 rats. Native CNP-22 or chimeric CNP in a dose of 10 nmol/kg was administered into tail vein of the rat and the blood before the administration and until 60 minutes after the administration was collected by a polyethylene tube inserted into the thigh artery. To the collected blood were added EDTA (manufactured by Dojin Laboratories) and aprotinin (manufactured by Bayer) as a stabilizer and an anti-coagulant, respectively and the plasma was separated therefrom by centrifugal separation. CNP immunoreactivity concentration in plasma was measured by a competitive radioimmunoassay (RIA). At that time, a rabbit polyclonal antibody (#2) which specifically recognizes the ring partial structure of the native CNP-22 was used as an antibody and, as a labeled compound, ^125I-[Tyr^0] CNP was used.

[4] = in vivo; details: rat, iv
Protocol: Changes in CNP immunoreactivity concentration in plasma when the native CNP-22 shown by SEQ ID No: 101 was administered either solely or jointly with neutral endo-peptidase (NEP) inhibitor and compared with changes in CNP immunoreactivity concentration in plasma when native CNP-53 (SEQ ID No: 159) and the chimeric CNP (D) (structure mentioned already) were intravenously administered.
The experiment was conducted using rats where polyethylene tube (PE-50, manufactured by Clay Adams) was previously inserted into thigh artery under the anesthetized condition with Nembutal. In the group where the native CNP-22 was administered either solely or jointly with an NEP inhibitor, the polyethylene tube (PE-10, manufactured by Clay Adams) was also inserted into the thigh vein. As to a test system, male SD rats (Nippon Charles River) of 7 weeks age were used where one group comprised three rats. As to the NEP inhibitor, DL-Thiorphan (manufactured by Sigma) was used and, during the period from 10 minutes before the initiation of administration of the native CNP-22 until 60 minutes after the initiation of the administration where collection of the blood finished, 5% mannitol (100 μL/min/body) or NEP inhibitor (30 μg/100 μL/min/body) was subjected to a constant-speed intravenous administration for 70 minutes using an Infusion Pump (CFV 2100, manufactured by Nippon Koden K. K.). Native CNP-22, native CNP-53 or chimeric CNP (D) was administered into tail vein in a dose of 20 nmol/kg each and blood over the time from before administration and 60 minutes after administration was collected from a polyethylene tube inserted into the thigh artery. To the collected blood were added EDTA (Dojin Laboratories) and aprotinin (manufactured by Bayer) as a stabilizer and an anti-coagulant, respectively and the plasma was separated by means of centrifugal separation. CNP immunoreactivity concentration in the plasma was measured by a competitive radioimmunoassay (RIA). At that time, a rabbit polyclonal antibody (#2) which specifically recognizes a ring part structure which is the common structure for native CNP-22 and native CNP-53 was used as an antibody while, as a labeling compound, ^125I-[Tyr^0] CNP-22 was used.

T1 sequence (P08473 whole entry): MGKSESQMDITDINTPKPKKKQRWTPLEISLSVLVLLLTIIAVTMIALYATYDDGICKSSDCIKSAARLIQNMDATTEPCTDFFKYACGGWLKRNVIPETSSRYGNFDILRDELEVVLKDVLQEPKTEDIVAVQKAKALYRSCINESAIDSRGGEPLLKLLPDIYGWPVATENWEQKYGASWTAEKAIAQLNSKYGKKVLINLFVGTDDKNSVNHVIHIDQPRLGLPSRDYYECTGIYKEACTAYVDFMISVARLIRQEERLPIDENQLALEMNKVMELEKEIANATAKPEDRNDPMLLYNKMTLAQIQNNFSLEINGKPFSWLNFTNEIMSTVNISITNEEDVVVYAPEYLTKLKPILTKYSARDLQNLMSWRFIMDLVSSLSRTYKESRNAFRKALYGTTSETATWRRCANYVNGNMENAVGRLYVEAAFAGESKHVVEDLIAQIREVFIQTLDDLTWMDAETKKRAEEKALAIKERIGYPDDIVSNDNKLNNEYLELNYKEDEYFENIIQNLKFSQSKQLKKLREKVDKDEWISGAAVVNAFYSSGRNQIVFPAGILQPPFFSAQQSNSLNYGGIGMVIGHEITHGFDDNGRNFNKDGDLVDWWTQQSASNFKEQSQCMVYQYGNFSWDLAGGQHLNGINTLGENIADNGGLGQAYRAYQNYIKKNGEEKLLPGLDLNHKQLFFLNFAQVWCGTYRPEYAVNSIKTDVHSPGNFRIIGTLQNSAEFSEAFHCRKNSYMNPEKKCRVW

remaining at 1 h, 0.5 μg/mL [1]: 84.3%
AUC(0-inf) ([2]; sc, subcutaneous): 24.9 ng·h/mL
Cmax ([2]; sc, subcutaneous): 27.9 ± 2.7 ng/mL
Tmax ([2]; sc, subcutaneous): 13.3 min
half-life ([2]; sc, subcutaneous): 20.7 ± 7.5 min
AUC(0-inf) ([2]; intravenous): 107 ng·h/mL
C0 ([2]; intravenous, extrapolated value): 1030 ± 358 ng/mL
half-life ([2]; intravenous): 21.7 ± 6.1 min
SMILES: CC[C@H](C)[C@@H]1NC(=O)[C@H](CCCNC(=N)N)NC(=O)[C@H](CC(=O)O)NC(=O)[C@H](CC(C)C)NC(=O)[C@H](CCCCN)NC(=O)[C@H](CC(C)C)NC(=O)CNC(=O)[C@H](Cc2ccccc2)NC(=O)[C@@H](NC(=O)[C@@H](NC(=O)[C@H](CCC(N)=O)NC(=O)[C@H](CCC(N)=O)NC(=O)[C@H](CCCNC(=N)N)NC(=O)[C@H](CCCCN)NC(=O)[C@H](CCC(=O)O)NC(=O)[C@H](CO)NC(=O)[C@H](CCCCN)NC(=O)[C@H](CCCCN)NC(=O)[C@@H]2CCCN2C(=O)[C@@H]2CCCN2C(=O)[C@H](C)NC(=O)[C@H](CCCCN)NC(=O)[C@H](CC(C)C)NC(=O)[C@H](CCC(N)=O)NC(=O)[C@@H]2CCCN2C(=O)[C@@H](N)CCCNC(=N)N)C(C)C)CSSC[C@@H](C(=O)O)NC(=O)CNC(=O)[C@H](CC(C)C)NC(=O)CNC(=O)[C@H](CO)NC(=O)[C@H](CCSC)NC(=O)[C@H](CO)NC(=O)CNC1=O [Chimeric CNP (A)] (H-RPQLKAPPKKSEKRQQVCFGLKLDRIGSMSGLGC-OH; disulfide 18-34; N-terminus and C-terminus assumed)

half-life [3]: 20.3 min
half-life compared with native CNP-22, native CNP-22 together with NEP inhibitor and native CNP-53 [4]: longer half-life
SMILES: CC[C@H](C)[C@@H]1NC(=O)[C@H](CCCNC(=N)N)NC(=O)[C@H](CC(=O)O)NC(=O)[C@H](CC(C)C)NC(=O)[C@H](CCCCN)NC(=O)[C@H](CC(C)C)NC(=O)CNC(=O)[C@H](Cc2ccccc2)NC(=O)[C@@H](NC(=O)CNC(=O)[C@H](CCCCN)NC(=O)[C@H](CO)NC(=O)[C@H](CC(C)C)NC(=O)CN)CSSC[C@@H](C(=O)N[C@H](C(=O)N[C@@H](CCC(N)=O)C(=O)N[C@@H](CCC(N)=O)C(=O)N[C@@H](CCCNC(=N)N)C(=O)N[C@@H](CCCCN)C(=O)N[C@@H](CCC(=O)O)C(=O)N[C@@H](CO)C(=O)N[C@@H](CCCCN)C(=O)N[C@@H](CCCCN)C(=O)N2CCC[C@H]2C(=O)N2CCC[C@H]2C(=O)N[C@@H](C)C(=O)N[C@@H](CCCCN)C(=O)N[C@@H](CC(C)C)C(=O)N[C@@H](CCC(N)=O)C(=O)N2CCC[C@H]2C(=O)N[C@@H](CCCNC(=N)N)C(=O)O)C(C)C)NC(=O)CNC(=O)[C@H](CC(C)C)NC(=O)CNC(=O)[C@H](CO)NC(=O)[C@H](CCSC)NC(=O)[C@H](CO)NC(=O)CNC1=O [Chimeric CNP (D)] (H-GLSKGCFGLKLDRIGSMSGLGCVQQRKESKKPPAKLQPR-OH; disulfide 6-22; N-terminus and C-terminus assumed)

half-life ([4]; male, SD): 15.7 min
SMILES: CC[C@H](C)[C@@H]1NC(=O)[C@H](CCCNC(=N)N)NC(=O)[C@H](CC(=O)O)NC(=O)[C@H](CC(C)C)NC(=O)[C@H](CCCCN)NC(=O)[C@H](CC(C)C)NC(=O)CNC(=O)[C@H](Cc2ccccc2)NC(=O)[C@@H](NC(=O)CNC(=O)[C@H](CCCCN)NC(=O)[C@H](CO)NC(=O)[C@H](CC(C)C)NC(=O)CNC(=O)[C@H](CCCCN)NC(=O)[C@H](CCCCN)NC(=O)[C@H](CC(N)=O)NC(=O)[C@H](C)NC(=O)CNC(=O)[C@H](CCCCN)NC(=O)[C@H](Cc2ccc(O)cc2)NC(=O)[C@H](CCCCN)NC(=O)[C@H](CCCNC(=N)N)NC(=O)[C@H](C)NC(=O)[C@H](CC(N)=O)NC(=O)[C@@H]2CCCN2C(=O)[C@H](Cc2c[nH]cn2)NC(=O)[C@H](CCC(=O)O)NC(=O)[C@H](CCC(N)=O)NC(=O)[C@H](CC(C)C)NC(=O)[C@H](CC(C)C)NC(=O)[C@H](CCCNC(=N)N)NC(=O)[C@H](C)NC(=O)[C@H](Cc2c[nH]c3ccccc23)NC(=O)[C@H](C)NC(=O)[C@H](C)NC(=O)[C@H](CCCNC(=N)N)NC(=O)[C@H](CO)NC(=O)[C@H](CCCCN)NC(=O)[C@@H](NC(=O)[C@H](CC(=O)O)NC(=O)[C@@H](NC(=O)[C@H](CCCNC(=N)N)NC(=O)[C@H](CC(C)C)NC(=O)[C@@H](N)CC(=O)O)C(C)C)[C@@H](C)O)CSSC[C@@H](C(=O)O)NC(=O)CNC(=O)[C@H](CC(C)C)NC(=O)CNC(=O)[C@H](CO)NC(=O)[C@H](CCSC)NC(=O)[C@H](CO)NC(=O)CNC1=O [Native CNP-53]
